# PubChem BioAssay (NCI)
#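 Growth conditions: 96-well plates. Treatment: test compound, 48 hours, 5 concentrations. Analysis: linear interpolation between bracketing concentrations; unreached endpoints set to highest concentration. At the TGI there is no net growth.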
# Experiments:
# Experiment in all cases: DTP human tumour cell line panel, 48 h
# LOX IMVI melanoma = system: LOX IMVI melanoma
# A498 renal = system: A498 renal
# U251 CNS = system: U251 CNS
# SR leukemia = system: SR leukemia
# COLO 205 colon = system: COLO 205 colon
# OVCAR-8 ovarian = system: OVCAR-8 ovarian
# NCI-H23 lung = system: NCI-H23 lung
# OVCAR-4 ovarian = system: OVCAR-4 ovarian
# HOP-18 NSCLC = system: HOP-18 NSCLC
# CAKI-1 renal = system: CAKI-1 renal
# SK-MEL-2 melanoma = system: SK-MEL-2 melanoma
# UO-31 renal = system: UO-31 renal
# MDA-N = system: MDA-N
# T-47D breast = system: T-47D breast
# SF-268 CNS = system: SF-268 CNS
# NCI-H522 lung = system: NCI-H522 lung
# SK-OV-3 ovarian = system: SK-OV-3 ovarian
# SW-620 colon = system: SW-620 colon
# DU-145 prostate = system: DU-145 prostate
# 786-0 renal = system: 786-0 renal
# LXFL 529 NSCLC = system: LXFL 529 NSCLC
# EKVX NSCLC = system: EKVX NSCLC
# BT-549 breast = system: BT-549 breast
# CCRF-CEM leukemia = system: CCRF-CEM leukemia
# DLD-1 colon = system: DLD-1 colon
# HCC-2998 colon = system: HCC-2998 colon
# SNB-78 CNS = system: SNB-78 CNS
# TK-10 renal = system: TK-10 renal
# SK-MEL-28 melanoma = system: SK-MEL-28 melanoma
# NCI-H226 lung = system: NCI-H226 lung
# SK-MEL-5 melanoma = system: SK-MEL-5 melanoma
# M14 melanoma = system: M14 melanoma
# NCI-H460 lung = system: NCI-H460 lung
# M19-MEL melanoma = system: M19-MEL melanoma
# HS 578T breast = system: HS 578T breast
# MDA-MB-231 breast = system: MDA-MB-231 breast
# MCF7 breast = system: MCF7 breast
# HL-60(TB) leukemia = system: HL-60(TB) leukemia
# HCT-15 colon = system: HCT-15 colon
# MOLT-4 leukemia = system: MOLT-4 leukemia
# HOP-62 NSCLC = system: HOP-62 NSCLC
# HOP-92 NSCLC = system: HOP-92 NSCLC
# DMS 273 small cell lung = system: DMS 273 small cell lung
# A549 NSCLC = system: A549 NSCLC
# RPMI-8226 leukemia = system: RPMI-8226 leukemia
# SNB-19 CNS = system: SNB-19 CNS
# SNB-75 CNS = system: SNB-75 CNS
# HT29 colon = system: HT29 colon
# SN12C renal = system: SN12C renal
# UACC-62 melanoma = system: UACC-62 melanoma
# K-562 leukemia = system: K-562 leukemia
# MDA-MB-435 = system: MDA-MB-435
# OVCAR-5 ovarian = system: OVCAR-5 ovarian
# PC-3 prostate = system: PC-3 prostate
# OVCAR-3 ovarian = system: OVCAR-3 ovarian
# KM12 colon = system: KM12 colon
# SF-539 CNS = system: SF-539 CNS
# DMS 114 small cell lung = system: DMS 114 small cell lung
# KM20L2 colon = system: KM20L2 colon
# UACC-257 melanoma = system: UACC-257 melanoma
# RXF 393 renal = system: RXF 393 renal
# IGROV1 ovarian = system: IGROV1 ovarian
# SF-295 CNS = system: SF-295 CNS
# MALME-3M melanoma = system: MALME-3M melanoma
# HCT-116 colon = system: HCT-116 colon
# ACHN renal = system: ACHN renal
compound,measurement,setting,value
COc1ccc2[nH]c3c4c(ccc3c2c1)C(=O)C=CC4=O,TGI,LOX IMVI melanoma,24.1 µM
same,TGI,A498 renal,48.4 µM
same,TGI,U251 CNS,36.5 µM
same,TGI,SR leukemia,2.79 µM
same,TGI,COLO 205 colon,15.6 µM
same,TGI,OVCAR-8 ovarian,12.4 µM
same,TGI,NCI-H23 lung,30.2 µM
same,TGI,OVCAR-4 ovarian,28.6 µM
same,TGI,HOP-18 NSCLC,22.7 µM
same,TGI,CAKI-1 renal,14.4 µM
same,TGI,SK-MEL-2 melanoma,28.5 µM
same,TGI,UO-31 renal,28.2 µM
same,TGI,MDA-N,29.7 µM
same,TGI,T-47D breast,9.75 µM
same,TGI,SF-268 CNS,36.1 µM
same,TGI,NCI-H522 lung,3.66 µM
same,TGI,SK-OV-3 ovarian,> 100 µM
same,TGI,SW-620 colon,6.63 µM
same,TGI,DU-145 prostate,> 100 µM
same,TGI,786-0 renal,24.2 µM
same,TGI,LXFL 529 NSCLC,14.8 µM
same,TGI,EKVX NSCLC,29.9 µM
same,TGI,BT-549 breast,84.9 µM
same,TGI,CCRF-CEM leukemia,6.55 µM
same,TGI,DLD-1 colon,8.78 µM
same,TGI,HCC-2998 colon,45.9 µM
same,TGI,SNB-78 CNS,37.1 µM
same,TGI,TK-10 renal,28.1 µM
same,TGI,SK-MEL-28 melanoma,20.2 µM
same,TGI,NCI-H226 lung,49.9 µM
same,TGI,SK-MEL-5 melanoma,40.1 µM
same,TGI,M14 melanoma,35.2 µM
same,TGI,NCI-H460 lung,54.1 µM
same,TGI,M19-MEL melanoma,32.7 µM
same,TGI,HS 578T breast,71.5 µM
same,TGI,MDA-MB-231 breast,35.4 µM
same,TGI,MCF7 breast,30.1 µM
same,TGI,HL-60(TB) leukemia,1.11 µM
same,TGI,HCT-15 colon,11.4 µM
same,TGI,MOLT-4 leukemia,3.1 µM
same,TGI,HOP-62 NSCLC,> 94.4 µM
same,TGI,HOP-92 NSCLC,7.64 µM
same,TGI,DMS 273 small cell lung,32 µM
same,TGI,A549 NSCLC,62.8 µM
same,TGI,RPMI-8226 leukemia,10.4 µM
same,TGI,SNB-19 CNS,> 79.1 µM
same,TGI,SNB-75 CNS,41.3 µM
same,TGI,HT29 colon,46.9 µM
same,TGI,SN12C renal,24.4 µM
same,TGI,UACC-62 melanoma,36 µM
same,TGI,K-562 leukemia,3.97 µM
same,TGI,MDA-MB-435,66.5 µM
same,TGI,OVCAR-5 ovarian,41.5 µM
same,TGI,PC-3 prostate,33.8 µM
same,TGI,OVCAR-3 ovarian,20.8 µM
same,TGI,KM12 colon,49.1 µM
same,TGI,SF-539 CNS,32.2 µM
same,TGI,DMS 114 small cell lung,27 µM
same,TGI,KM20L2 colon,43.1 µM
same,TGI,UACC-257 melanoma,27.7 µM
same,TGI,RXF 393 renal,6.88 µM
same,TGI,IGROV1 ovarian,26.4 µM
same,TGI,SF-295 CNS,53.9 µM
same,TGI,MALME-3M melanoma,17.4 µM
same,TGI,HCT-116 colon,13.9 µM
same,TGI,ACHN renal,15 µM
O=C(Cc1ccccc1)NN1C(=O)C(Cl)C1c1ccc(O)cc1 (stereo not given),TGI,LOX IMVI melanoma,> 100 µM
same,TGI,U251 CNS,> 100 µM
same,TGI,SR leukemia,> 100 µM
same,TGI,COLO 205 colon,> 100 µM
same,TGI,OVCAR-8 ovarian,> 100 µM
same,TGI,NCI-H23 lung,> 100 µM
same,TGI,HOP-18 NSCLC,> 100 µM
same,TGI,CAKI-1 renal,> 100 µM
same,TGI,SK-MEL-2 melanoma,> 100 µM
same,TGI,UO-31 renal,> 100 µM
same,TGI,SF-268 CNS,> 100 µM
same,TGI,NCI-H522 lung,> 100 µM
same,TGI,SK-OV-3 ovarian,> 100 µM
same,TGI,SW-620 colon,> 100 µM
same,TGI,786-0 renal,> 100 µM
same,TGI,EKVX NSCLC,> 100 µM
same,TGI,CCRF-CEM leukemia,> 100 µM
same,TGI,DLD-1 colon,> 100 µM
same,TGI,HCC-2998 colon,> 100 µM
same,TGI,TK-10 renal,> 100 µM
same,TGI,SK-MEL-28 melanoma,> 100 µM
same,TGI,NCI-H226 lung,> 100 µM
same,TGI,SK-MEL-5 melanoma,> 100 µM
same,TGI,M14 melanoma,> 100 µM
same,TGI,NCI-H460 lung,> 100 µM
same,TGI,M19-MEL melanoma,> 100 µM
same,TGI,HL-60(TB) leukemia,> 100 µM
same,TGI,HCT-15 colon,> 100 µM
same,TGI,MOLT-4 leukemia,> 100 µM
same,TGI,HOP-62 NSCLC,> 100 µM
same,TGI,DMS 273 small cell lung,> 100 µM
same,TGI,A549 NSCLC,> 100 µM
same,TGI,RPMI-8226 leukemia,> 100 µM
same,TGI,SNB-19 CNS,> 100 µM
same,TGI,SNB-75 CNS,> 100 µM
same,TGI,HT29 colon,> 100 µM
same,TGI,SN12C renal,> 100 µM
same,TGI,UACC-62 melanoma,> 100 µM
same,TGI,K-562 leukemia,> 100 µM
same,TGI,OVCAR-5 ovarian,> 100 µM
same,TGI,OVCAR-3 ovarian,> 100 µM
same,TGI,KM12 colon,> 100 µM
same,TGI,DMS 114 small cell lung,> 100 µM
same,TGI,KM20L2 colon,> 100 µM
same,TGI,UACC-257 melanoma,> 100 µM
same,TGI,RXF 393 renal,> 100 µM
same,TGI,IGROV1 ovarian,> 100 µM
same,TGI,SF-295 CNS,> 100 µM
same,TGI,MALME-3M melanoma,> 100 µM
same,TGI,HCT-116 colon,> 100 µM
same,TGI,ACHN renal,> 100 µM
O=C1c2ccccc2CCCCCCCCCCC12OCCCO2,TGI,LOX IMVI melanoma,84.8 µM
same,TGI,A498 renal,97.5 µM
same,TGI,U251 CNS,> 100 µM
same,TGI,COLO 205 colon,38.1 µM
same,TGI,OVCAR-8 ovarian,> 100 µM
same,TGI,NCI-H23 lung,> 100 µM
same,TGI,OVCAR-4 ovarian,> 100 µM
same,TGI,HOP-18 NSCLC,> 100 µM
same,TGI,CAKI-1 renal,95.7 µM
same,TGI,SK-MEL-2 melanoma,68.3 µM
same,TGI,UO-31 renal,> 100 µM
same,TGI,SF-268 CNS,96.7 µM
same,TGI,NCI-H522 lung,67.2 µM
same,TGI,SK-OV-3 ovarian,> 100 µM
same,TGI,786-0 renal,> 100 µM
same,TGI,LXFL 529 NSCLC,> 100 µM
same,TGI,CCRF-CEM leukemia,83.3 µM
same,TGI,DLD-1 colon,> 100 µM
same,TGI,HCC-2998 colon,68.2 µM
same,TGI,SNB-78 CNS,> 100 µM
same,TGI,TK-10 renal,> 100 µM
same,TGI,SK-MEL-28 melanoma,> 100 µM
same,TGI,NCI-H226 lung,97.2 µM
same,TGI,SK-MEL-5 melanoma,83.8 µM
same,TGI,M14 melanoma,> 100 µM
same,TGI,NCI-H460 lung,> 100 µM
same,TGI,M19-MEL melanoma,> 100 µM
same,TGI,HL-60(TB) leukemia,40.1 µM
same,TGI,HCT-15 colon,92.3 µM
same,TGI,MOLT-4 leukemia,43.8 µM
same,TGI,HOP-62 NSCLC,> 100 µM
same,TGI,DMS 273 small cell lung,> 100 µM
same,TGI,A549 NSCLC,91.9 µM
same,TGI,RPMI-8226 leukemia,40 µM
same,TGI,SNB-19 CNS,77.5 µM
same,TGI,SNB-75 CNS,> 100 µM
same,TGI,HT29 colon,42.9 µM
same,TGI,SN12C renal,> 100 µM
same,TGI,UACC-62 melanoma,> 100 µM
same,TGI,K-562 leukemia,> 100 µM
same,TGI,OVCAR-5 ovarian,66.8 µM
same,TGI,OVCAR-3 ovarian,> 100 µM
same,TGI,KM12 colon,> 100 µM
same,TGI,SF-539 CNS,> 100 µM
same,TGI,DMS 114 small cell lung,37.5 µM
same,TGI,KM20L2 colon,71.7 µM
same,TGI,UACC-257 melanoma,72.7 µM
same,TGI,RXF 393 renal,33.7 µM
same,TGI,IGROV1 ovarian,> 100 µM
same,TGI,SF-295 CNS,> 100 µM
same,TGI,MALME-3M melanoma,77.8 µM
same,TGI,HCT-116 colon,38.3 µM
same,TGI,ACHN renal,> 100 µM
